The source of these data is paper PMC13629022 (ACS Omega, 2026).

The test system of data set [1] is murine macrophage-like J774.A1 cells. The experiment in a line: Cytotoxicity to J774.A1 macrophages (Alamar Blue). The note with it: concentrations up to 500 μM (compounds 7 and 13 up to 250 μM). Here is the method: Cells were incubated for 72 h at 37 °C in a 5% CO2 atmosphere, as previously described. They were then stimulated with LPS (500 ng/mL, Sigma Chemical Co., St. Louis, MO, USA) and IFN-γ (5 ng/mL, Sigma). Compounds were added to the medium at eight concentrations ranging from 1.9 to 500 μM, in triplicate, and incubated for 24 h. Subsequently, 20 μL per well of Alamar Blue (Invitrogen, Carlsbad, CA, USA) was added to the plates for 6 h. Compounds 7, 11, and 13 were evaluated only up to a maximum concentration of 250 μM due to the limited amount of purified material available for testing. Colorimetric readings were performed at 570 and 600 nm. Triton X-100 (5%) was used as the positive control.
In general terms: Resazurin is reduced to fluorescent resorufin, in cell work by metabolically active cells.

Data set [2] concerns IL-6 production by stimulated J774.A1 macrophages. Description: IL-6 production by LPS + IFN-γ stimulated J774.A1 macrophages (ELISA). The data set is classed as cell-based, murine. The note with it: compounds at 62.5 μM, Dexa 40 μM, 24 h, vs stimulated untreated cells, p < 0.05. Here is the method: (§1) Cells were then stimulated with LPS (500 ng/mL) and IFN-γ (5 ng/mL) in the presence of either the test compounds at different concentrations (3.9–250 μM), the medium alone, or dexamethasone (40 μM, reference drug) and further incubated at 37 °C. Cell-free supernatants were collected 24 h after incubation for IL-1β, IL-6, and nitrite quantification. Cytokine concentrations in the supernatants of J774.A1 cultures were determined by enzyme-linked immunosorbent assay (ELISA) using the DuoSet kit (R&D Systems, Minneapolis, MN, USA), according to the manufacturer’s instructions. Results were expressed as picograms per milliliter (pg/mL) of IL-1β or IL-6. Quantification of nitrite as an indicator of nitric oxide production was performed using the Griess method. Three independent experiments were performed. −
(ELISA stands for enzyme-linked immunosorbent assay.)

Data set [3] concerns IL-1β production by stimulated J774.A1 macrophages. The experiment in a line: IL-1β production by LPS + IFN-γ stimulated J774.A1 macrophages (ELISA). Type of data set: cell-based, murine. Conditions: compounds at 62.5 μM, Dexa 40 μM, 24 h, vs stimulated untreated cells, p < 0.05. As for the experimental part: as §1
Data set [4] has as its system nitric oxide production by stimulated J774.A1 macrophages. The experiment in a line: Nitric oxide production by LPS + IFN-γ stimulated J774.A1 macrophages (nitrite, Griess method). The data set is classed as cell-based, murine. Conditions: Mus musculus. Here is the method: as §1, with “For cytokine and nitric oxide evaluations, J774.A1 cells were seeded in 96-well tissue culture plates at 2 × 10^5 cells per well in DMEM supplemented with 10% FBS and 50 μg/mL gentamicin and incubated for 2 h at 37 °C in a 5% CO2 atmosphere, as previously described. Cells” for “Cells”
Background: Nitrite, measured by Griess reagent, commonly stands in for NO production.

Where [5] appears, read: J774.A1, 24 h, read-out: IC50, half maximal inhibitory concentration, NO production, J774.A1 macrophages stimulated with LPS (500 ng/mL) + IFN-γ (5 ng/mL), 24 h, nitrite by Griess.
Setting [6] is: J774.A1, 24 h, read-out: efficacy: maximum effect (% of the maximum possible effect), inhibition of NO production, J774.A1 macrophages stimulated with LPS + IFN-γ, 24 h.
Where [7] appears, read: J774.A1, read-out: IC50 (in Figure 8 panels), nitric oxide production, Figure 8, no unit in the boxes, μM only in axis labels, LPS + IFN-γ stimulated J774.A1.

Entries after “also recorded” stand apart in the source; their conditions may differ. Where two headings read alike, the source gives them in different places.

As to `COC1CC(OC2CCC3(C)C(=CCC4(O)C3CC(OC(=O)C=Cc3ccccc3)C3(C)C(O)(C(C)OC(=O)c5cccnc5)CCC43O)C2)OC(C)C1OC1CC(OC)C(OC2OC(C)C(O)C(OC)C2O)C(C)O1` [Compound 1, 12-O-cinnamoyl-20-O-nicotinoyl-(20R)-sarcostin-3-O-β-D-6-deoxy-3-O-methyl-allopyranosyl-(1 → 4)-β-D-oleandropyranosyl-(1 → 4)-β-D-cymaropyranoside], in data set [1], the “cytotoxic effects in J774 macrophages (in words)” value (from here on “cytotoxic effects”) is “did not induce cytotoxic effects”. Besides, the “production of IL-6 (in words)” value in data set [2] is listed as “comparable to those of Dexa”. The “production of IL-1β (in words)” value in data set [3] is given as “significant reduction; also recorded: comparable to those of Dexa”. Moreover, the IC50 in data set [4] (setting [5]) is 24.5 µM. Further, in data set [4] (setting [6]), the Emax is > 70%.

On to `COC1CC(OC2CCC3(C)C(CCC4(O)C3CC(OC(=O)C=Cc3ccccc3)C3(C)C(O)(C(C)OC(=O)c5cccnc5)CCC43O)C2)OC(C)C1OC1CC(OC)C(OC2OC(C)C(O)C(OC)C2O)C(C)O1` [Compound 2, 12-O-cinnamoyl-20-O-nicotinoyl-(20R)-5,6-dihydrosarcostin-3-O-β-D-6-deoxy-3-O-methyl-allopyranosyl-(1 → 4)-β-D-oleandropyranosyl-(1 → 4)-β-D-cymaropyranoside], for which the “cytotoxic effects” value in data set [1] is recorded as “did not induce cytotoxic effects”. The “production of IL-6 (in words)” value in data set [2] is “comparable to those of Dexa”. Besides, the “production of IL-1β (in words)” value in data set [3] was “significant reduction; also recorded: comparable to those of Dexa”. In data set [4] (setting [5]), the IC50 came to 32.1 µM. For the same molecule, in data set [4] (setting [6]), the Emax was > 70%.

`COC1CC(OC2CCC3(C)C(CCC4(O)C3CC(OC(=O)C=Cc3ccccc3)C3(C)C(C(C)O)CCC43O)C2)OC(C)C1OC1CC(OC)C(OC2OC(C)C(OC3OC(CO)C(OC4OC(CO)C(O)C(O)C4O)C(O)C3O)C(OC)C2O)C(C)O1` [Compound 6, 12-O-cinnamoyl-(20S)-5,6,17-trihydrosarcostin-3-O-β-D-glucopyranosyl-(1 → 4)-β-D glucopyranosyl-(1 → 4)-β-D-6-deoxy-3-O-methyl-allopyranosyl-(1 → 4)-β-D oleandropyranosyl-(1 → 4)-β-D-cymaropyranoside]: the “cytotoxic effects” value in data set [1] is “did not induce cytotoxic effects”. In addition, the “production of IL-1β (in words)” value in data set [3] is listed as “did not reduce”. In data set [4] (setting [6]), the Emax was < 50%.

In the case of `COC1CC(OC2C(C)OC(OC3CCC4(C)C(CCC5(O)C4CC(OC(=O)C=Cc4ccccc4)C4(C)C(C(C)O)CCC54O)C3)CC2OC(C)=O)OC(C)C1OC1OC(C)C(OC2OC(CO)C(OC3OC(CO)C(O)C(O)C3O)C(O)C2O)C(OC)C1O` [Compound 7, 12-O-cinnamoyl-(20S)-5,6,17-trihydrosarcostin-3-O-β-D-glucopyranosyl-(1 → 4)-β-D-glucopyranosyl-(1 → 4)-β-D-6-deoxy-3-O-methyl-allopyranosyl-(1 → 4)-β-D-oleandropyranosyl-(1 → 4)-β-D-3′-O-acetyl-cymaropyranoside], the “cytotoxic effects” value in data set [1] is listed as “did not exhibit cytotoxicity at the concentrations tested”. The “production of IL-1β (in words)” value in data set [3] is on record as “did not reduce”. Also, the IC50 in data set [4] (setting [5]) is > 100 µM. Further, the Emax in data set [4] (setting [6]) is < 50%.

Turning to `COC1CC(OC2CCC3(C)C(=CCC4(O)C3CC(OC(=O)C=Cc3ccccc3)C3(C)C(C(C)O)CCC43O)C2)OC(C)C1OC1CC(OC)C(OC2OC(C)C(O)C(OC)C2O)C(C)O1` [Compound 11, 12-O-cinnamoyl-(20S)-17-hydrosarcostin-3-O-β-D-6-deoxy-3-O-methyl-allopyranosyl-(1 → 4)-β-D-oleandropyranosyl-(1 → 4)-β-D-cymaropyranoside], the “cytotoxic effects” value in data set [1] is given as “most cytotoxic”. Moreover, in data set [3], the “production of IL-1β (in words)” value is on record as “significant reduction”. In addition, the IC50 in data set [4] (setting [5]) and in data set [4] (setting [7]) was 47.3 µM throughout. Besides, the Emax in data set [4] (setting [6]) worked out at 51.8%.

Regarding `COC1CC(OC2C(O)CC(OC3CCC4(C)C(CCC5(O)C4CC(OC(=O)C=Cc4ccccc4)C4(C)C(C(C)O)CCC54O)C3)OC2C)OC(C)C1OC1OC(C)C(O)C(OC)C1O` [Compound 12, 12-O-cinnamoyl-(20S)-5,6,17-trihydrosarcostin-3-O-β-D-6-deoxy-3-O-methyl-allopyranosyl-(1 → 4)-β-D-oleandropyranosyl-(1 → 4)-β-D-digitoxopyranoside], in data set [3], the “production of IL-1β (in words)” value is “did not reduce”. Also, in data set [4] (setting [5]), the IC50 was > 100 µM. Further, the Emax in data set [4] (setting [6]) turned out to be 62%.

Regarding `COC1CC(OC2C(C)OC(OC3CCC4(C)C(CCC5(O)C4CC(OC(=O)C=Cc4ccccc4)C4(C)C(C(C)O)CCC54O)C3)CC2OC(C)=O)OC(C)C1OC1OC(C)C(O)C(OC)C1O` [Compound 13, 12-O-cinnamoyl-(20S)-5,6,17-trihydrosarcostin-3-O-β-D-6-deoxy-3-O-methyl-allopyranosyl-(1 → 4)-β-D-oleandropyranosyl-(1 → 4)-β-D-3′-O-acetyl-cymaropyranoside], in data set [1], the “cytotoxic effects” value is “did not exhibit cytotoxicity at the concentrations tested”. The “production of IL-1β (in words)” value in data set [3] is on record as “significant reduction”. Besides, the IC50 in data set [4] (setting [5]) and in data set [4] (setting [7]) was 42.4 µM each time. In addition, the Emax in data set [4] (setting [6]) amounted to 59.3%.

`COC1CC(OC2CCC3(C)C(CCC4(O)C3CC(OC(=O)C=Cc3ccccc3)C3(C)C(C(C)O)CCC43O)C2)OC(C)C1OC1CC(OC)C(OC2OC(C)C(O)C(OC)C2O)C(C)O1` [Compound 15, 12-O-cinnamoyl-(20S)-5,6,17-trihydrosarcostin-3-O-β-D-6-deoxy-3-O-methyl-allopyranosyl-(1 → 4)-β-D-oleandropyranosyl-(1 → 4)-β-D-cymaropyranoside]: in data set [1], the “cytotoxic effects” value is “most cytotoxic”. Also, the “production of IL-1β (in words)” value in data set [3] was “significant reduction”. Besides, the values for the IC50 in data set [4] (setting [5]) and in data set [4] (setting [7]) were 33.7 µM and 33.8 µM, respectively. Also, the Emax in data set [4] (setting [6]) came to 62.9%.

`COC1CC(OC2C(C)OC(OC3CCC4(C)C(CCC5(O)C4CC(OC(C)=O)C4(C)C(C(C)OC(=O)c6ccccc6)CCC54O)C3)CC2OC(C)=O)OC(C)C1OC1OC(C)C(O)C(OC)C1O` [Compound 17, 12-O-acetyl-20-O-benzoyl-(20R)-5,6,17-trihydrosarcostin-3-O-β-D-6-deoxy-3-O-methyl-allopyranosyl-(1 → 4)-β-D-oleandropyranosyl-(1 → 4)-β-D-3′-O-acetyl-cymaropyranoside]: in data set [1], the “cytotoxic effects” value was “only mild cytotoxicity at the highest concentrations”. Also, in data set [3], the “production of IL-1β (in words)” value is recorded as “significant reduction”. Besides, the IC50 in data set [4] (setting [5]) and in data set [4] (setting [7]) was 46.3 µM in each case. Moreover, the Emax in data set [4] (setting [6]) was < 50%.

Turning to `COC1CC(OC2CCC3(C)C(CCC4(O)C3CC(OC(C)=O)C3(C)C(C(C)OC(=O)c5ccccc5)CCC43O)C2)OC(C)C1OC1CC(OC)C(OC2OC(C)C(O)C(OC)C2O)C(C)O1` [Compound 18, 12-O-acetyl-20-O-benzoyl-(20R)-5,6,17-trihydrosarcostin-3-O-β-D-6-deoxy-3-O-methyl-allopyranosyl-(1 → 4)-β-D-oleandropyranosyl-(1 → 4)-β-D-cymaropyranoside], the “production of IL-1β (in words)” value in data set [3] was “significant reduction”. Moreover, the IC50 in data set [4] (setting [5]) and in data set [4] (setting [7]) was 66.2 µM in each case. The Emax in data set [4] (setting [6]) is < 50%.

With `C[C@@H]1C[C@H]2[C@@H]3CCC4=CC(=O)C=C[C@]4(C)[C@@]3(F)[C@@H](O)C[C@]2(C)[C@@]1(O)C(=O)CO` [Dexa, dexamethasone, reference compound], in data set [4] (J774.A1, 24 h, J774.A1 macrophages stimulated with LPS (500 ng/mL) + IFN-γ (5 ng/mL), 24 h, nitrite by Griess, read-out: IC50, half maximal inhibitory concentration, NO production), the IC50 stood at 4.8 µM. The Emax in data set [4] (J774.A1, 24 h, J774.A1 macrophages stimulated with LPS + IFN-γ, 24 h, read-out: efficacy: maximum effect (% of the maximum possible effect), inhibition of NO production) was determined as 51.6%.
